Test results from article PMC3561413 (PLoS ONE, 2013).

What was measured:
CFU-GM from PMF patients = assay: Colony assay for hematopoietic progenitors, CFU-GM, PMF patients; type: cell-based; conditions: Homo sapiens, 336 h, MF (n = 10), day 14, read-out: IC50, CFU-GM colony formation
Experimental: (§1) Figure 3 mTOR and JAK2 inhibitors preferentially suppress colony formation from hematopoietic progenitors of MPN patients as compared to healthy controls. Mononuclear cells from patients with PV or PMF (n = 10 each) or control subjects (n = 10) were plated at 10^5/mL in cytokine-supplemented methylcellulose medium for the growth of erythroid burst-forming unit (BFU-E) and granulocyte-macrophage colony-forming unit (CFU-GM), and CD34^+ cells (5×10^4/mL) were plated in collagen-based medium for megakaryocyte colony-forming unit (CFU-Mk). […] Colonies were enumerated on day 14 and expressed as a percentage of the colonies grown in control plates containing vehicle only.

Ba/F3-EPOR VF cells [1] = assay: Apoptosis (Annexin V flow cytometry), Ba/F3-EPOR VF; type: cell-based, mouse; conditions: for IC50: Mus musculus, 48 h, median, read-out: IC50 for apoptosis (Annexin V positive cells)
Experimental: (§2) Ba/F3-EPOR cells, both wt and VF, HEL and SET2 cells were plated at 2×10^4 in 96-well culture tissue plates with increasing concentrations of the drug(s), in triplicate, and the amount of viable cells was assessed at 48 h using the WST-1 assay (Roche, USA) after normalization to wells containing an equivalent volume of vehicle (DMSO) only. For clonogenic assay, 5×10^3 cells were plated in 0.5% agar in medium supplemented with 10% FBS (plus 1 U/mL EPO in case of Ba/F3-EPOR wt cells); variable amount of the drug(s) (or an equivalent volume of vehicle in control plates) was added once at the beginning of culture. Colonies were enumerated by inverted microscopy after 7 day incubation, in duplicate. Quantification of apoptotic cells was accomplished by flow cytometry using the Annexin-V-FLUOS Staining kit (Roche); at least 20,000 events were acquired. For cell cycle distribution analysis by flow cytometry, 1×10^6 cells were treated with ethanol 95%, RNase 10 µg/mL and propidium iodide […].
(§3) Results shown are the Mean±SD of at least three experiments. In panel B, the percentage of Annexin V-positive cells was measured in cultures of Ba/F3-EPOR VF cells exposed to varying amount of the drugs for 48 h; percentage was calculated after subtraction of background apoptosis in cells incubated without drug. Results shown are the Mean±SD of at least three experiments. (TIF) Click here for additional data file.

SET2 cells [2] = assay: Apoptosis (Annexin V flow cytometry), SET2; type: cell-based; conditions: Homo sapiens, SET-2; SET2, median
Experimental: as §2

Ba/F3-EPOR VF cells [3] = assay: Cell cycle distribution analysis by flow cytometry (propidium iodide), Ba/F3-EPOR VF; type: cell-based; conditions: Mus musculus, after 24 hours, median value, read-out: concentration giving 50% reduction of the cells in the S-phase compared to untreated cells
Experimental: as §2, §3

[4] = tested on: CFU-GM from healthy controls; assay: Colony assay for hematopoietic progenitors, CFU-GM, healthy controls; type: cell-based; conditions: Homo sapiens, 336 h, Ctrl (n = 10), day 14, read-out: IC50, CFU-GM colony formation
Experimental: as §1

BFU-E from PV patients = assay: Colony assay for hematopoietic progenitors, BFU-E, PV patients; type: cell-based; conditions: Homo sapiens, 336 h; PV (n = 10), day 14; read-out: IC50, BFU-E colony formation
Experimental: as §1

[5] = tested on: SET2 cells (JAK2V617F mutated); assay: Clonogenic assay in agar, SET2; type: cell-based; conditions: Homo sapiens, SET-2
Experimental: as §2

[6] = tested on: HEL cells (JAK2V617F mutated); assay: Clonogenic assay in agar, HEL; type: cell-based; conditions: Homo sapiens, Table 1
Experimental: as §2

BFU-E from PMF patients = assay: Colony assay for hematopoietic progenitors, BFU-E, PMF patients; type: cell-based; conditions: Homo sapiens, 336 h; MF (n = 10), day 14; read-out: IC50, BFU-E colony formation
Experimental: as §1

[7] = tested on: Ba/F3-EPOR wt cells (JAK2 wild-type); assay: Clonogenic assay in agar, Ba/F3-EPOR wt; type: cell-based; conditions: Mus musculus, 168 h, semisolid culture, 7 days, 1 U/mL EPO, read-out: IC50 of colony formation (clonogenic assay)
Experimental: as §2

SET2 cells [8] = assay: Cell cycle distribution analysis by flow cytometry, SET2; type: cell-based; conditions: Homo sapiens, SET-2; SET2, median concentration; read-out: concentration giving 50% reduction of cells in the S-phase compared to controls
Experimental: as §2

[9] = tested on: SET2 cells (JAK2V617F mutated); assay: Inhibition of proliferation assay (WST-1, 48 h), SET2; type: cell-based; conditions: Homo sapiens, SET-2, SET2, 48 h
Experimental: as §2

CFU-Mk from PV patients = assay: Colony assay for hematopoietic progenitors, CFU-Mk, PV patients; type: cell-based; conditions: Homo sapiens, 336 h; PV (n = 10), day 14; read-out: IC50, CFU-Mk colony formation
Experimental: as §1

CFU-GM from PV patients = assay: Colony assay for hematopoietic progenitors, CFU-GM, PV patients; type: cell-based; conditions: Homo sapiens, 336 h, PV (n = 10), day 14, read-out: IC50, CFU-GM colony formation
Experimental: as §1

[10] = tested on: HEL cells (JAK2V617F mutated); assay: Inhibition of proliferation assay (WST-1, 48 h), HEL; type: cell-based; conditions: Homo sapiens
Experimental: as §2

[11] = tested on: Ba/F3-EPOR wt cells (JAK2 wild-type); assay: Inhibition of proliferation assay (WST-1, 48 h), Ba/F3-EPOR wt; type: cell-based; conditions: Mus musculus, 1 U/mL EPO, mean±SD, read-out: IC50 of cell proliferation
Experimental: as §2

[12] = tested on: Ba/F3-EPOR VF cells (JAK2V617F); assay: Inhibition of proliferation assay (WST-1, 48 h), Ba/F3-EPOR VF; type: cell-based; conditions: Mus musculus
Experimental: as §2

[13] = tested on: CFU-Mk from healthy controls; assay: Colony assay for hematopoietic progenitors, CFU-Mk, healthy controls; type: cell-based; conditions: Homo sapiens, 336 h; Ctrl (n = 10), day 14; read-out: IC50, CFU-Mk colony formation
Experimental: as §1

CFU-Mk from PMF patients = assay: Colony assay for hematopoietic progenitors, CFU-Mk, PMF patients; type: cell-based; conditions: Homo sapiens, 336 h; MF (n = 10), day 14; read-out: IC50, CFU-Mk colony formation
Experimental: as §1

[14] = tested on: Ba/F3-EPOR VF cells (JAK2V617F); assay: Clonogenic assay in agar, Ba/F3-EPOR VF; type: cell-based; conditions: Mus musculus, 168 h, semisolid culture, 7 days, single drug, read-out: IC50 of colony formation (clonogenic assay)
Experimental: as §2

[15] = tested on: CD34+ cells from PMF patients; assay: CD34+ proliferation assay (WST-1, 48 h), PMF patients; type: cell-based; conditions: Homo sapiens, CD34+ cell; PMF patients n = 6, 48 h, cytokine cocktail
Experimental: (§4) To measure the drug-induced inhibition of CD34^+ cell growth, purified cells were plated at 3·10^4 cells/well in IDMEM supplemented with cytokines and variable amounts of the drugs were added. Cell proliferation was evaluated using the WST-1 Assay (Roche, USA) after 48 h and results were normalized to wells containing vehicle only.
(§5) CD34^+ cells from patients with PMF (n = 6) or control subjects (Ctr; n = 5) were plated at 2×10^5/mL in 96-well culture tissue plates with increasing concentrations of the drugs, in triplicate; viable cells were assessed after 48 hrs using the WST-1 assay and normalized to wells containing an equivalent volume of vehicle (DMSO) only.

[16] = tested on: BFU-E from healthy controls; assay: Colony assay for hematopoietic progenitors, BFU-E, healthy controls; type: cell-based; conditions: Homo sapiens, 336 h; Ctrl (n = 10), day 14; read-out: IC50, BFU-E colony formation
Experimental: as §1

[17] = tested on: CD34+ cells from healthy controls; assay: CD34+ proliferation assay (WST-1, 48 h), healthy controls; type: cell-based; conditions: Homo sapiens, CD34+ cell; healthy subjects n = 5, 48 h, cytokine cocktail
Experimental: as §4, §5

[18] = tested on: EEC from peripheral blood mononuclear cells of PV patients; assay: EEC assay (erythropoietin-independent erythroid colonies), PV patients; conditions: Homo sapiens, PBMC, 240 h, read-out: IC50 of EEC growth
[19] = SET2, Table 1, read-out: IC50, clonogenic assay
[20] = SET2, Table 3, read-out: IC50, clonogenic potential, single drug
[21] = SET2, running text b32, read-out: concentration preventing colony formation (mean value)
[22] = Table 3, read-out: IC50, proliferation, single drug
[23] = read-out: IC50, proliferation assay
[24] = BaF3, 48 h, Ba/F3 VF liquid culture maintained with Epo 1 U/mL, read-out: IC50 of cell proliferation in the presence of Epo
[25] = Ba/F3-EPOR VF, 48 h, single drug, cytokine-free medium, mean±SD, read-out: IC50 of cell proliferation

Row | Structure (SMILES) | IC50 (CFU-GM from PMF patients) | IC50 (Ba/F3-EPOR VF cells [1]) | IC50 (SET2 cells [2]) | IC50 (Ba/F3-EPOR VF cells [3]) | IC50 [4] | IC50 (BFU-E from PV patients) | IC50 [5, 19] | IC50 [5, 20] | IC50 [5, 21] | IC50 [6] | IC50 (BFU-E from PMF patients) | IC50 (SET2 cells [8]) | IC50 (CFU-Mk from PV patients) | IC50 (CFU-GM from PV patients) | IC50 [13] | IC50 (CFU-Mk from PMF patients) | IC50 [15] | IC50 [16] | IC50 [17] | IC50 [18] | other results
1 | Cc1cc(Nc2nc(N[C@@H](C)c3ncc(F)cn3)ncc2Cl)n[nH]1 [AZD1480] | 0.009 ± 0.003 µM | 0.8 µM | 0.4 µM | 1.2 µM | 0.193 ± 0.013 µM | 0.135 ± 0.019 µM | 0.035 ± 0.01 µM | 0.035 ± 0.01 µM | 0.035 µM | 0.46 ± 0.03 µM | 0.027 ± 0.008 µM | 1.5 µM | 0.044 ± 0.002 µM | 0.046 ± 0.005 µM | 0.4 ± 0.012 µM | 0.059 ± 0.003 µM | 0.474 ± 0.03 µM | 0.226 ± 0.017 µM | 0.891 ± 0.1 µM | 0.019 ± 0.002 µM | IC50 [7]: 0.75 ± 0.1 µM; IC50 [9, 22]: 0.09 ± 0.005 µM; IC50 [9, 23]: 0.09 ± 0.005 µM; IC50 [10]: 0.86 ± 0.02 µM; IC50 [11]: 0.752 ± 0.03 µM; IC50 [12, 24]: 0.707 ± 0.011 µM; IC50 [12, 25]: 0.313 ± 0.023 µM; IC50 [14]: 0.019 ± 0.011 µM
2 | CO[C@H]1C[C@@H]2CC[C@@H](C)[C@@](O)(O2)C(=O)C(=O)N2CCCC[C@H]2C(=O)O[C@H]([C@H](C)C[C@@H]2CC[C@@H](OCCO)[C@H](OC)C2)CC(=O)[C@H](C)/C=C(\C)[C@@H](O)[C@@H](OC)C(=O)[C@H](C)C[C@H](C)/C=C/C=C/C=C/1C [RAD001, Everolimus] | 0.046 ± 0.013 µM | 5 µM | 38 µM | 6.5 µM | 0.335 ± 0.016 µM | 0.091 ± 0.015 µM | 0.044 ± 0.015 µM | 0.044 ± 0.015 µM | 0.044 µM | 0.93 ± 0.01 µM | 0.042 ± 0.01 µM | 33 µM | 0.05 ± 0.005 µM | 0.075 ± 0.004 µM | 0.572 ± 0.013 µM | 0.044 ± 0.005 µM | 0.271 ± 0.1 µM | 0.432 ± 0.022 µM | > 5 µM | 0.015 ± 0.01 µM | drug concentration at which an increase of apoptotic cells became appreciable (Ba/F3-EPOR VF cells [1]; followed by a plateau): > 3.3 µM; IC50 [7]: 0.022 ± 0.01 µM; IC50 [9, 22]: 17 µM; IC50 [9, 23]: 17 µM; IC50 [10]: 14 ± 2.8 µM; IC50 [11]: 11 µM; IC50 [12, 24]: 1.23 µM; IC50 [12, 25]: 0.651 ± 0.05 µM; IC50 [14]: 0.004 ± 0.002 µM
3 | N#CC[C@H](C1CCCC1)n1cc(-c2ncnc3[nH]ccc23)cn1 [Ruxolitinib, ruxolitinib] | 0.043 ± 0.004 µM | 1.3 µM | 0.5 µM | 1.87 µM | 0.209 ± 0.04 µM |  |  |  |  |  | 0.046 ± 0.01 µM | 10 µM | 0.004 ± 0.002 µM | 0.039 ± 0.006 µM | 0.012 ± 0.005 µM | 0.004 ± 0.003 µM | 0.84 ± 0.3 µM | 0.167 ± 0.07 µM | > 5 µM | 0.0018 ± 0.001 µM | 
